Columns and labels:
hBD-3 = assay: Immunohistochemistry of hBD-3 peptide in gingival explant, systemic treatment; assay type: cell-based, human; details: 30 µg/ml, 5 h, qualitative
Description: Les explants gingivaux humains de taille variable et petite sont rincés dix fois dans du PBS sans antibiotiques puis mis en culture sur une grille afin d'éviter leur immersion totale, posés côté derme.
(§1) Les échantillons inclus dans la résine Tissue Tek® sont coupés à froid (température de la chambre à -25°C et la température du porte-objet à - 28°C) à l'aide d'un cryostat (Leica CM 3050s, Nussloch). Les cryocoupes d'une épaisseur de 5 µm sont récupérées sur des lames porte-objet prétraitées, puis mises à sécher environ 2 h à température ambiante et stockées à -20°C pour une utilisation ultérieure. Avant de réaliser l'immuno-marquage, les coupes sont fixées à l'acétone à -20°C pendant 10 min, séchées et conservées à -20°C. Lors d'une première étape, les coupes sont hydratées puis incubées avec les anticorps primaires dirigés contre les peptides d'intérêt dilués dans du PBS. Les anticorps primaires utilisés sont les suivants : • Goat Anti-human BD-2 (500-P161G, Peprotech Inc) dilué au 1/50^e • Rabbit Anti-human defensin-3 (AB3478, Chemicon international) dilué au 1/1000^e • Rabbit Anti-human LL37 (G-075-06, Phoenix Pharmaceuticals Inc) dilué au 1/50^e
Pour révéler le complexe Antigène-Anticorps, le kit DAKO LSAB® (DAKO Corporation) est utilisé selon les recommandations du fournisseur. […]

[1] = test system: Staphylococcus epidermidis; assay: Development of endogenous commensal S. epidermidis on skin explant during 24 h after adhesion step; assay type: cell-based; details: systemic treatment, in words
Description: Il est par ailleurs possible d'observer la colonisation de l'explant par le germe exogène (S. aureus) après l'étape d'adhésion pendant 24 h. […] L'effet inverse est observé avec le traitement par le TNF-α, cytokine pro-inflammatoire, qui après avoir entraîné une forte chute de l'adhésion de S. aureus (Cf.III.4.2) ne permet pas une limitation de la croissance du germe pathogène sur l'explant et ceci au dépend du germe commensal S. epidermidis.
La figure 12 annexée illustre la comparaison de la colonisation d'une souche contaminante, S. aureus, avec celle d'une souche commensale, S. epidermis.

hBD-2 = assay: Immunohistochemistry of hBD-2 peptide in skin explants; assay type: cell-based, human; details: skin explant, qualitative
Description: as §1
Pour révéler le complexe Antigène-Anticorps, le kit DAKO LSAB® (DAKO Corporation) est utilisé selon les recommandations du fournisseur. La révélation est réalisée à l'aide d'un substrat de la péroxydase : la 3,3'diaminobenzidine (DAB) (DAKO Corporation). […]

## laurate de butylglucoside [αβ-LBG brut]
hBD-3
  production du peptide hBD-3 dans les couches supérieures de l'épithélium gingival: induction de la production du peptide hBD-3
[1]
  développement du germe commensal S. epidermidis: favorise à l'inverse le développement d'un germe commensal endogène
hBD-2; systemic, 24 h
  production du peptide hBD-2 dans les couches supérieures de l'épiderme: stimulation de la production
hBD-2; topical
  production du peptide hBD-2 dans les couches supérieures de l'épiderme: stimulation de la production

Source: patent publication EP1978972B1, “USE OF ALKYLGLUCOSIDE ESTERS AS BETA-DEFENSIN INDUCERS” (Pierre Fabre Dermo-Cosmétique, priority 2006, dated 2007)
